Measurements reported in patent US20240415918A1, “Polypeptide and its use as a CCK receptor agonist/antagonist” (Centre for Regenerative Medicine & Health, Hong Kong …, priority 2021, published 2024).
Where a SMILES comes first, the peptide text is derived from it. [ ]: non-standard residue; d: D form.

target: T1, CCK-B receptors (CHO-CCK) (Homo sapiens, UniProt P32239); assay: Calcium flux (Fluo-8) agonist test on CHO-CCK model cells; assay type: cell-based; conditions: CHO-CCK cells, compound alone; 100% = 20 nM CCK8
T1 construct: expressed in transfected cells; host or cells: CHO (CHO-CCK model cells)
T1 sequence (P32239 1-447): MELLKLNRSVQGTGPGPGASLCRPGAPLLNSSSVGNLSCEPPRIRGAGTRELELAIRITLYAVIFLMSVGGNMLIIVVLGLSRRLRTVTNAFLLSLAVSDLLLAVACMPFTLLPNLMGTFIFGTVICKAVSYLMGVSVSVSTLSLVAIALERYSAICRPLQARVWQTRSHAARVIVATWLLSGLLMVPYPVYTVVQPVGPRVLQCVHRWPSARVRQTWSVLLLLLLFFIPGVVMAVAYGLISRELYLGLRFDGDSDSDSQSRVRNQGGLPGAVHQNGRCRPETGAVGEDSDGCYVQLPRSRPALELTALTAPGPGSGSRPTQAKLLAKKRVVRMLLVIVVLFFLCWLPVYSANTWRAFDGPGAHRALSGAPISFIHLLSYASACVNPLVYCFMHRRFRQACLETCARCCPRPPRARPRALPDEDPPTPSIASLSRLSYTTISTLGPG
Experimental: • To detect changes in intracellular calcium ion concentration after the compound acts on model cells containing CCK-B receptors (CHO-CCK).
• 1. The compound was formulated to a 10 mM mother liquor with DMSO, and then diluted into a series of 9 concentrations with a 3-fold gradient to form a 1000× stock solution.
2.1 Agonist • The compound stock solution was subjected to 200-fold dilution with HHBS buffer to form a 5× working solution.
• 1. Plate CHO-CCK cells in a 96-well plate with media containing 1% FBS, 30,000 cells/well/100 μL, and incubate overnight at 37° C. • 2. Prepare 1×Fluo-8 analysis buffer: mix 9 mL of HHBS, 1 mL of 10× Pluronic F127 Plus and 20 μL of Fluo-8 thoroughly for later use. • 3. Add Fluo-8 dye working solution to the cell plate, 100 μL/well. First incubate in a 37° C. incubator for 30 min, and then take it out and incubate at room temperature in the dark for 30 min. • 4. In the process of incubating cells, the compounds to be detected were prepared with HHBS. • 5.
The agonism/antagonism EC50 of the compound can be obtained by plotting the fitting curve with the agonism/antagonism percentage as Y-axis and the concentration of the compound as X-axis.

EC50 [µM] | SMILES
6.79 | C[S+]([O-])CC[C@H](NC(=O)[C@H](N)Cc1c[nH]c2ccccc12)C(=O)N[C@@H](CC(=O)O)C(=O)N[C@@H](Cc1cc(F)c(F)c(F)c1)C(N)=O (stereo partly drawn) [HT-57, D-Trp-Met(O)-Asp-Phe(3,4,5-TriF)-NH2]
4.37 | CS(=O)(=O)CC[C@H](NC(=O)[C@H](N)Cc1c[nH]c2ccccc12)C(=O)N[C@@H](CC(=O)O)C(=O)N[C@@H](Cc1cccc(I)c1)C(N)=O [HT-62, D-Trp-Met(O2)-Asp-Phe(3-I)-NH2]
11.4 | CS(=O)(=O)CC[C@H](NC(=O)[C@H](N)Cc1c[nH]c2ccccc12)C(=O)N[C@@H](CC(=O)O)C(=O)N[C@@H](Cc1ccc(F)cc1)C(N)=O [HT-70, D-Trp-Met(O2)-Asp-Phe(4-F)-NH2]

same assay, conditions: CHO-CCK cells, compound alone; bound in μM

EC50 [µM] | SMILES
> 10 | CSCC[C@H](NC(=O)[C@H](CC(=O)O)NC(=O)[C@@H](N)Cc1ccccc1)C(=O)N[C@@H](Cc1c[nH]c2ccccc12)C(=O)O [HT-1, Phe-Asp-Met-Trp-COOH] (H-FDMW-OH)
> 10 | CSCC[C@H](NC(=O)[C@H](CC(=O)O)NC(=O)[C@H](Cc1ccccc1)NC(C)=O)C(=O)N[C@@H](Cc1c[nH]c2ccccc12)C(=O)O [HT-2, Ac-Phe-Asp-Met-Trp-COOH]
> 10 | CSCC[C@H](NC(=O)[C@H](CC(=O)O)NC(=O)[C@H](Cc1ccccc1)NC(C)=O)C(=O)N[C@@H](Cc1c[nH]c2ccccc12)C(=O)O [HT-3, Ac-Phe-Asp-Met-Trp-NH2]
> 10 | CSCC[C@H](NC(=O)[C@@H](CC(=O)O)NC(=O)[C@H](Cc1ccccc1)NC(C)=O)C(=O)N[C@@H](Cc1c[nH]c2ccccc12)C(=O)O [HT-4, Ac-Phe-D-Asp-Met-Trp-NH2]
> 10 | CSCC[C@@H](NC(=O)[C@H](CC(=O)O)NC(=O)[C@H](Cc1ccccc1)NC(C)=O)C(=O)N[C@@H](Cc1c[nH]c2ccccc12)C(=O)O [HT-5, Ac-Phe-Asp-D-Met-Trp-NH2]
> 10 | CSCC[C@H](NC(=O)[C@H](CC(=O)O)NC(=O)[C@H](Cc1ccccc1)NC(C)=O)C(=O)N[C@H](Cc1c[nH]c2ccccc12)C(N)=O [HT-6, Ac-Phe-Asp-Met-D-Trp-NH2] (Ac-FDM[dW]-NH2)
> 10 | CSCC[C@@H](NC(=O)[C@@H](CC(=O)O)NC(=O)[C@H](N)Cc1ccccc1)C(=O)N[C@H](Cc1c[nH]c2ccccc12)C(=O)O [HT-7, D-Phe-D-Asp-D-Met-D-Trp-COOH] (H-[dF][dD][dM][dW]-OH)
> 10 | CSCC[C@@H](NC(=O)[C@@H](CC(=O)O)NC(=O)[C@@H](Cc1ccccc1)NC(C)=O)C(=O)N[C@H](Cc1c[nH]c2ccccc12)C(N)=O [HT-8, Ac-D-Phe-D-Asp-D-Met-D-Trp-NH2] (Ac-[dF][dD][dM][dW]-NH2)

same assay, conditions: compound at 10 μM; percentage of signal of 20 nM CCK8 alone

Agonistic Activity (%) at 10 μM [%] | SMILES
19.11 | C[S+]([O-])CC[C@H](NC(=O)[C@H](N)Cc1c[nH]c2ccccc12)C(=O)N[C@@H](CC(=O)O)C(=O)N[C@@H](Cc1ccccc1)C(N)=O (stereo partly drawn) [HT-16, D-Trp-Met(O)-Asp-Phe-NH2]
19.12 | CS(=O)(=O)CC[C@H](NC(=O)[C@H](N)Cc1c[nH]c2ccccc12)C(=O)N[C@@H](CC(=O)O)C(=O)N[C@@H](Cc1ccccc1)C(N)=O [HT-17, D-Trp-Met(O2)-Asp-Phe-NH2]
7.59 | COC(=O)C[C@H](NC(=O)[C@H](CCSC)NC(=O)[C@H](N)Cc1c[nH]c2ccccc12)C(=O)N[C@@H](Cc1ccccc1)C(N)=O [HT-18, D-Trp-Met-Asp(OMe)-Phe-NH2]
−9.73 | COC(=O)C[C@H](NC(=O)[C@H](CC[S+](C)[O-])NC(=O)[C@H](N)Cc1c[nH]c2ccccc12)C(=O)N[C@@H](Cc1ccccc1)C(N)=O (stereo partly drawn) [HT-20, D-Trp-Met(O)-Asp(OMe)-Phe-NH2]
0.98 | COC(=O)C[C@H](NC(=O)[C@H](CCS(C)(=O)=O)NC(=O)[C@H](N)Cc1c[nH]c2ccccc12)C(=O)N[C@@H](Cc1ccccc1)C(N)=O [HT-22, D-Trp-Met(O2)-Asp(OMe)-Phe-NH2]
6.07 | CSCC[C@H](NC(=O)[C@H](N)Cc1c[nH]c2ccccc12)C(=O)N[C@@H](CC(=O)O)C(=O)N[C@@H](Cc1ccc(N=[N+]=[N-])cc1)C(N)=O [HT-31, D-Trp-Met-Asp-Phe(4-N3)-NH2]

Further lines, the compound ahead of its results:

SMILES | Agonistic Activity (%) at 10 μM [%]
C[S+]([O-])CC[C@H](NC(=O)[C@H](N)Cc1c[nH]c2ccccc12)C(=O)N[C@@H](CC(=O)O)C(=O)N[C@@H](Cc1ccccc1[N+](=O)[O-])C(N)=O (stereo partly drawn) [HT-41, D-Trp-Met(O)-Asp-Phe(2-NO2)-NH2] | −11.17
Cc1ccc(C[C@H](NC(=O)[C@H](CC(=O)O)NC(=O)[C@H](CC[S+](C)[O-])NC(=O)[C@H](N)Cc2c[nH]c3ccccc23)C(N)=O)cc1 (stereo partly drawn) [HT-47, D-Trp-Met(O)-Asp-Phe(4-Me)-NH2] | 26.99
C[S+]([O-])CC[C@H](NC(=O)[C@H](N)Cc1c[nH]c2ccccc12)C(=O)N[C@@H](CC(=O)O)C(=O)N[C@@H](Cc1ccc(N=[N+]=[N-])cc1)C(N)=O (stereo partly drawn) [HT-48, D-Trp-Met(O)-Asp-Phe(4-N3)-NH2] | 17.23
C[S+]([O-])CC[C@H](NC(=O)[C@H](N)Cc1c[nH]c2ccccc12)C(=O)N[C@@H](CC(=O)O)C(=O)N[C@@H](Cc1ccc(C#N)cc1)C(N)=O (stereo partly drawn) [HT-49, D-Trp-Met(O)-Asp-Phe(4-CN)-NH2] | 1.03
C[S+]([O-])CC[C@H](NC(=O)[C@H](N)Cc1c[nH]c2ccccc12)C(=O)N[C@@H](CC(=O)O)C(=O)N[C@@H](Cc1ccc([N+](=O)[O-])cc1)C(N)=O (stereo partly drawn) [HT-50, D-Trp-Met(O)-Asp-Phe(4-NO2)-NH2] | 11.85
C[S+]([O-])CC[C@H](NC(=O)[C@H](N)Cc1c[nH]c2ccccc12)C(=O)N[C@@H](CC(=O)O)C(=O)N[C@@H](Cc1ccc(Br)cc1)C(N)=O (stereo partly drawn) [HT-51, D-Trp-Met(O)-Asp-Phe(4-Br)-NH2] | 17.18
C[S+]([O-])CC[C@H](NC(=O)[C@H](N)Cc1c[nH]c2ccccc12)C(=O)N[C@@H](CC(=O)O)C(=O)N[C@@H](Cc1ccc(Cl)cc1)C(N)=O (stereo partly drawn) [HT-52, D-Trp-Met(O)-Asp-Phe(4-Cl)-NH2] | 15.71
C[S+]([O-])CC[C@H](NC(=O)[C@H](N)Cc1c[nH]c2ccccc12)C(=O)N[C@@H](CC(=O)O)C(=O)N[C@@H](Cc1ccc(I)cc1)C(N)=O (stereo partly drawn) [HT-54, D-Trp-Met(O)-Asp-Phe(4-I)-NH2] | 3.14
C[S+]([O-])CC[C@H](NC(=O)[C@H](N)Cc1c[nH]c2ccccc12)C(=O)N[C@@H](CC(=O)O)C(=O)N[C@@H](Cc1cc(F)cc(F)c1)C(N)=O (stereo partly drawn) [HT-56, D-Trp-Met(O)-Asp-Phe(3,5-DiF)-NH2] | 43.98
C[S+]([O-])CC[C@H](NC(=O)[C@H](N)Cc1c[nH]c2ccccc12)C(=O)N[C@@H](CC(=O)O)C(=O)N[C@@H](Cc1cc(F)c(F)c(F)c1)C(N)=O (stereo partly drawn) [HT-57, D-Trp-Met(O)-Asp-Phe(3,4,5-TriF)-NH2] | 56.81
CS(=O)(=O)CC[C@H](NC(=O)[C@H](N)Cc1c[nH]c2ccccc12)C(=O)N[C@@H](CC(=O)O)C(=O)N[C@@H](Cc1ccccc1[N+](=O)[O-])C(N)=O [HT-58, D-Trp-Met(O2)-Asp-Phe(2-NO2)-NH2] | 23.63
CS(=O)(=O)CC[C@H](NC(=O)[C@H](N)Cc1c[nH]c2ccccc12)C(=O)N[C@@H](CC(=O)O)C(=O)N[C@@H](Cc1cccc(I)c1)C(N)=O [HT-62, D-Trp-Met(O2)-Asp-Phe(3-I)-NH2] | 4.26
Cc1ccc(C[C@H](NC(=O)[C@H](CC(=O)O)NC(=O)[C@H](CCS(C)(=O)=O)NC(=O)[C@H](N)Cc2c[nH]c3ccccc23)C(N)=O)cc1 [HT-64, D-Trp-Met(O2)-Asp-Phe(4-Me)-NH2] | 17.43
CS(=O)(=O)CC[C@H](NC(=O)[C@H](N)Cc1c[nH]c2ccccc12)C(=O)N[C@@H](CC(=O)O)C(=O)N[C@@H](Cc1ccc(C#N)cc1)C(N)=O [HT-66, D-Trp-Met(O2)-Asp-Phe(4-CN)-NH2] | 0.33
CS(=O)(=O)CC[C@H](NC(=O)[C@H](N)Cc1c[nH]c2ccccc12)C(=O)N[C@@H](CC(=O)O)C(=O)N[C@@H](Cc1ccc([N+](=O)[O-])cc1)C(N)=O [HT-67, D-Trp-Met(O2)-Asp-Phe(4-NO2)-NH2] | −1.49
CS(=O)(=O)CC[C@H](NC(=O)[C@H](N)Cc1c[nH]c2ccccc12)C(=O)N[C@@H](CC(=O)O)C(=O)N[C@@H](Cc1ccc(Br)cc1)C(N)=O [HT-68, D-Trp-Met(O2)-Asp-Phe(4-Br)-NH2] | 15.61
CS(=O)(=O)CC[C@H](NC(=O)[C@H](N)Cc1c[nH]c2ccccc12)C(=O)N[C@@H](CC(=O)O)C(=O)N[C@@H](Cc1ccc(Cl)cc1)C(N)=O [HT-69, D-Trp-Met(O2)-Asp-Phe(4-Cl)-NH2] | 20.02
CS(=O)(=O)CC[C@H](NC(=O)[C@H](N)Cc1c[nH]c2ccccc12)C(=O)N[C@@H](CC(=O)O)C(=O)N[C@@H](Cc1ccc(F)cc1)C(N)=O [HT-70, D-Trp-Met(O2)-Asp-Phe(4-F)-NH2] | 35.31
CS(=O)(=O)CC[C@H](NC(=O)[C@H](N)Cc1c[nH]c2ccccc12)C(=O)N[C@@H](CC(=O)O)C(=O)N[C@@H](Cc1ccc(I)cc1)C(N)=O [HT-71, D-Trp-Met(O2)-Asp-Phe(4-I)-NH2] | 13.13
